In US20220267300A1 (NodThera Limited, priority 2019, published 2022):

test system: IL-1β release upon NLRP3 activation in peripheral blood mononuclear cells (PBMC); assay: PBMC IC50 determination assay (inhibition of IL-1β release); type: cell-based; details: Homo sapiens; IL-1β release from LPS-primed PBMC stimulated with ATP (5 mM) or nigericin (10 μM); ELISA or HTRF; corresponding sodium salts evaluated
Method: The compounds of the present disclosure were tested for their inhibitory activity against IL-1β release upon NLRP3 activation in peripheral blood mononuclear cells (PBMC).
Protocol A. PBMC were isolated from buffy coats by density gradient centrifugation on Histopaque-1077 (Sigma, cat no. 10771). Isolated cells were seeded into the wells of a 96-well plate and incubated for 3 h with lipopolysaccharide (LPS). Following medium exchange, the compounds of the present disclosure were added (a single compound per well) and the cells were incubated for 30 min. Next, the cells were stimulated either with ATP (5 mM) or nigericin (10 μM) for 1 h and the cell culture media from the wells were collected for further analysis.
The release of IL-1β into the media was determined by a quantitative detection of IL-1β in the media using an IL-1β enzyme-linked immunosorbent assay (ELISA) Ready-SET-Go!, eBioscience cat. No. 88-7261-88. Briefly, in a first step, high affinity binding plates (Corning, Costar 9018 or NUNC Maxisorp Cat No. 44-2404) were coated overnight at 4° C. with specific capture antibody included in the kit (anti-human IL-1β ref. 14-7018-68). Subsequently, plates were blocked with blocking buffer for 1 h at room temperature (rt) and after washing with a buffer (PBS with 0.05% Tween-20) incubated with protein standard and culture media. After 2 h of incubation at rt, plates were washed and incubated with biotinylated detection antibody included in the kit (anti-human IL-1β Biotin ref. 33-7110-68) for 1 h at rt. Plates were washed and incubated with HRP-streptavidin for 30 min at rt and washed again. The signal was developed after addition of 3,3′,5,5′-tetramethylbenzidine-peroxidase (TMB) until colour appeared and the reaction was stopped by 2 M H2SO4. A microplate spectrophotometer (BioTek) was used to detect signals with 450 nm. The detection range of IL-1β ELISA was 2-150 ng/ml.
Protocol B. PBMC were isolated from buffy coats by density gradient centrifugation on Histopaque-1077 (Sigma, cat no. 10771). Isolated cells were seeded into the wells (280,000 cells/well) of a 96-well plate and incubated for 3 h with lipopolysaccharide (LPS, 1 μg/ml diluted 1000× from a 1 mg/ml stock solution). The compounds of the present disclosure were added (a single compound per well) and the cells were incubated for 30 min. Next, the cells were stimulated with ATP (5 mM final concentration diluted 20× from a 100 mM stock solution) for 1 h and the cell culture media from the wells were collected for further analysis.
The release of IL-1β into the media was determined by quantitative detection of IL-1β in the media using HTRF®, CisBio cat. No. 62HIL1BPEH. Briefly, cell culture supernatant were dispensed directly into the assay plate containing antibodies labelled with the HTRF® donor and acceptor. A microplate spectrophotometer (BMG) was used to detect signals at 655 nm and 620 nm. The detection range of IL-1β HTRF® was 39-6500 pg/ml.

| Structure (SMILES) | IC50 [µM] |
| --- | --- |
| CN(CCN(c1cnn(C)c1)S(=O)(=O)NC(=O)Cc1c2c(cc3c1CCC3)CCC2)C(=O)OCc1ccccc1 [Example 25, Benzyl N-[2-({[2-(1,2,3,5,6,7-hexahydro-s-indacen-4-yl)acetamido]sulfonyl}(1-methyl-1H-pyrazol-4-yl)amino)ethyl]-N-methylcarbamate] | 3 to 10 |
| CC(C)c1cc(F)cc(C(C)C)c1CC(=O)NS(=O)(=O)N(c1cnn(C)c1)C1CCOCC1 [Example 30] | ≥ 50 |
| COc1cc(-c2cc(F)cc(C(C)C)c2CC(=O)NS(=O)(=O)N(c2cnn(C)c2)C2CCCN(C)C2)ccn1 (stereo not shown) [Example 28, 2-[4-Fluoro-2-isopropyl-6-(2-methoxy-4-pyridyl)phenyl]-N-[(1-methyl-3-piperidyl)-(1-methylpyrazol-4-yl)sulfamoyl]acetamide] | 3 to 10 |
| CN1CCCC(N(c2cnn(C)c2)S(=O)(=O)NC(=O)Cc2ccc3c(c2)C(C)(C)CO3)C1 (stereo not shown) [Example 49] | ≥ 50 |
| CN(C)CCN(c1cnn(C)c1)S(=O)(=O)NC(=O)Cc1c2c(cc3c1CCC3)CCC2 [Example 18, N-{[2-(Dimethylamino)ethyl](1-methyl-1H-pyrazol-4-yl)sulfamoyl}-2-(1,2,3,5,6,7-hexahydro-s-indacen-4-yl)acetamide] | 1 to 3 |
| CN1CCCC(N(c2cnn(C)c2)S(N)(=O)=NC(=O)Cc2c3c(cc4c2CCC4)CCC3)C1 (stereo not shown) [Example 13, N-{Amino[(1-methyl-1H-pyrazol-4-yl)(1-methylpiperidin-3-yl)amino]oxo-lambda6-sulfanylidene}-2-(1,2,3,5,6,7-hexahydro-s-indacen-4-yl)acetamide] | 3 to 10 |
| CC(C)c1cc(CC(=O)N=S(N)(=O)N(c2cnn(C)c2)C2CCCN(C)C2)cc(C(C)C)c1 (stereo not shown) [Example 41] | 3 to 10 |
| CC(=O)NCCN(c1cnn(C)c1)S(=O)(=O)NC(=O)Cc1c2c(cc3c1CCC3)CCC2 [Example 23, N-[(2-Acetamidoethyl)(1-methyl-1H-pyrazol-4-yl)sulfamoyl]-2-(1,2,3,5,6,7-hexahydro-s-indacen-4-yl)acetamide] | 10 to 50 |
| CC(C)c1cc(Cl)cc(CC(=O)NS(=O)(=O)N(C[C@@H]2CCCN2C)c2cnn(C)c2)c1 [Example 8, 2-[3-Chloro-5-(propan-2-yl)phenyl]-N-[(1-methyl-1H-pyrazol-4-yl)({[(2S)-1-methylpyrrolidin-2-yl]methyl})sulfamoyl]acetamide] | 1 to 3 |
| CN1CCC(N(c2cnn(C)c2)S(=O)(=O)NC(=O)Cc2c3c(cc4c2CC4)CC3)CC1 [Example 29, N-[(1-methyl-4-piperidyl)-(1-methylpyrazol-4-yl)sulfamoyl]-2-(2-tricyclo[6.2.0.03,6]deca-1(8),2,6-trienyl)acetamide] | 1 to 3 |
| CN1CCCC(N(c2cnn(C)c2)S(=O)(=O)NC(=O)Cc2c3c(cc4c2CCC4)CCC3)C1 (stereo not shown) [Example 17, 2-(1,2,3,5,6,7-Hexahydro-s-indacen-4-yl)-N-[(1-methyl-1H-pyrazol-4-yl)(1-methylpiperidin-3-yl)sulfamoyl]acetamide] | < 1 |
| Cc1cc(CC(=O)NS(=O)(=O)N(c2cnn(C)c2)C2CCCN(C)C2)cc(C(F)(F)F)c1 (stereo not shown) [Example 2, N-[(1-Methyl-1H-pyrazol-4-yl)(1-methylpiperidin-3-yl)sulfamoyl]-2-[3-methyl-5-(trifluoromethyl)phenyl]acetamide] | 10 to 50 |
| CC(C)c1cc(CC(=O)NS(=O)(=O)N(C[C@@H]2CCCN2C)c2cnn(C)c2)cc(C(C)C)c1Cl [Example 55] | 10 to 50 |
| Cn1cc(N(CCN)S(=O)(=O)NC(=O)Cc2c3c(cc4c2CCC4)CCC3)cn1 [Example 22, N-[(2-Aminoethyl)(1-methyl-1H-pyrazol-4-yl)sulfamoyl]-2-(1,2,3,5,6,7-hexahydro-s-indacen-4-yl)acetamide] | 10 to 50 |
| CN1CCC[C@H]1CN(c1cnn(C)c1)S(=O)(=O)NC(=O)Cc1c2c(cc3c1CCC3)CCC2 [Example 11, 2-(1,2,3,5,6,7-Hexahydro-s-indacen-4-yl)-N-[(1-methyl-1H-pyrazol-4-yl)({[(2S)-1-methylpyrrolidin-2-yl]methyl})sulfamoyl]acetamide] | < 1 |
| Cn1cc(N(CCNCC(F)F)S(=O)(=O)NC(=O)Cc2c3c(cc4c2CCC4)CCC3)cn1 [Example 24, N-({2-[(2,2-Difluoroethyl)amino]ethyl}(1-methyl-1H-pyrazol-4-yl)sulfamoyl)-2-(1,2,3,5,6,7-hexahydro-s-indacen-4-yl)acetamide] | < 1 |

| Structure (SMILES) | IC50 [µM] |
| --- | --- |
| CCc1cc(CC(=O)NS(=O)(=O)N(c2cnn(C)c2)C2CCCN(C)C2)cc(C(F)(F)F)c1 (stereo not shown) [Example 16, 2-[3-Ethyl-5-(trifluoromethyl)phenyl]-N-[(1-methyl-1H-pyrazol-4-yl)(1-methylpiperidin-3-yl)sulfamoyl]acetamide] | 3 to 10 |
| CC(C)c1cc(CC(=O)NS(=O)(=O)N(CC2CCCO2)c2cnn(C)c2)cc(C(C)C)c1 (stereo not shown) [Example 38] | 10 to 50 |
| Cn1cc(N(CCNC(=O)OCc2ccccc2)S(=O)(=O)NC(=O)Cc2c3c(cc4c2CCC4)CCC3)cn1 [Example 21] | 3 to 10 |
| CN1CCC[C@H]1CN(c1cnn(C)c1)S(=O)(=O)NC(=O)Cc1cc(Cl)cc(OCC(F)(F)F)c1 [Example 51] | ≥ 50 |
| Cc1noc(N(C2CCCN(C)C2)S(=O)(=O)NC(=O)Cc2cc(C(C)C)cc(C(C)C)c2)c1C (stereo not shown) [Example 7, 2-[3,5-Bis(propan-2-yl)phenyl]-N-[(3,4-dimethyl-1,2-oxazol-5-yl)(1-methylpiperidin-3-yl)sulfamoyl]acetamide] | < 1 |
| Cn1cc(N(CCCNC(=O)OCc2ccccc2)S(=O)(=O)NC(=O)Cc2c3c(cc4c2CCC4)CCC3)cn1 [Example 27, Benzyl N-[3-[[2-(1,2,3,5,6,7-hexahydro-s-indacen-4-yl)acetyl]sulfamoyl-(1-methylpyrazol-4-yl)amino]propyl]carbamate] | 1 to 3 |
| CN1CCCC(N(c2cnn(C)c2)S(=O)(=O)NC(=O)Cc2cc(Cl)cc(Cl)c2)C1 (stereo not shown) [Example 33] | 10 to 50 |
| CC(C)c1cc(F)cc(C(C)C)c1CC(=O)NS(=O)(=O)N(c1cnn(C)c1)C1CCCN(C)C1 (stereo not shown) [Example 1, 2-[4-Fluoro-2,6-bis(propan-2-yl)phenyl]-N-[(1-methyl-1H-pyrazol-4-yl)(1-methylpiperidin-3-yl)sulfamoyl]acetamide] | 10 to 50 |
| CC(C)c1cc(CC(=O)NS(=O)(=O)N(C[C@@H]2CCCN2C)c2cnn(C)c2)cc(C(F)(F)F)c1 [Example 10, N-[(1-Methyl-1H-pyrazol-4-yl)({[(2S)-1-methylpyrrolidin-2-yl]methyl})-sulfamoyl]-2-[3-(propan-2-yl)-5-(trifluoromethyl)phenyl]acetamide] | 3 to 10 |
| Cn1cc(N(C2CCCN(C(=O)OCc3ccccc3)C2)S(=O)(=O)NC(=O)Cc2c3c(cc4c2CCC4)CCC3)cn1 (stereo not shown) [Example 19, Benzyl 3-({[2-(1,2,3,5,6,7-hexahydro-s-indacen-4-yl)acetamido]sulfonyl}(1-methyl-1H-pyrazol-4-yl)amino)piperidine-1-carboxylate] | 3 to 10 |
| CN1CCCC(N(c2cnn(C)c2)S(=O)(=O)NC(=O)Cc2cc(C(F)(F)F)cc(C(F)(F)F)c2)C1 (stereo not shown) [Example 6, 2-[3,5-Bis(trifluoromethyl)phenyl]-N-[(1-methyl-1H-pyrazol-4-yl)(1-methylpiperidin-3-yl)sulfamoyl]acetamide] | < 1 |
| CC(C)c1ccc(Cl)c(C(C)C)c1CC(=O)NS(=O)(=O)N(C[C@@H]1CCCN1C)c1cnn(C)c1 [Example 12, 2-[3-Chloro-2,6-bis(propan-2-yl)phenyl]-N-[(1-methyl-1H-pyrazol-4-yl)({[(2S)-1-methylpyrrolidin-2-yl]methyl})sulfamoyl]acetamide] | 3 to 10 |
| CN1CCC[C@H]1CN(c1cnn(C)c1)S(=O)(=O)NC(=O)Cc1cc(C(C)(C)C)cc(C(C)(C)C)c1 [Example 52] | ≥ 50 |
| CN1CCC[C@H]1CN(c1cnn(C)c1)S(=O)(=O)NC(=O)Cc1ccc(C(F)(F)F)cc1Cl [Example 37] | ≥ 50 |
| CC(C)c1cc(CC(=O)N=S(N)(=O)N(c2cnn(C)c2)C2CCCN(C)C2)c(C(C)C)s1 (stereo not shown) [Example 15, N-{Amino[(1-methyl-1H-pyrazol-4-yl)(1-methylpiperidin-3-yl)amino]oxo-lambda6-sulfanylidene}-2-[2,5-bis(propan-2-yl)thiophen-3-yl]acetamide] | 10 to 50 |
